Measurements reported in ChEMBL document CHEMBL1908105, “UDP-glucuronosyltransferases and clinical drug-drug interactions” (Pharmacol Ther, 2005).

Key:
[1] = target: T1, UDP-glucuronosyltransferase 1A9 (Homo sapiens, UniProt O60656); assay: Drug glucuronidation reaction catalyzed by human recombinant UGT1A9
T1 sequence (O60656 whole entry): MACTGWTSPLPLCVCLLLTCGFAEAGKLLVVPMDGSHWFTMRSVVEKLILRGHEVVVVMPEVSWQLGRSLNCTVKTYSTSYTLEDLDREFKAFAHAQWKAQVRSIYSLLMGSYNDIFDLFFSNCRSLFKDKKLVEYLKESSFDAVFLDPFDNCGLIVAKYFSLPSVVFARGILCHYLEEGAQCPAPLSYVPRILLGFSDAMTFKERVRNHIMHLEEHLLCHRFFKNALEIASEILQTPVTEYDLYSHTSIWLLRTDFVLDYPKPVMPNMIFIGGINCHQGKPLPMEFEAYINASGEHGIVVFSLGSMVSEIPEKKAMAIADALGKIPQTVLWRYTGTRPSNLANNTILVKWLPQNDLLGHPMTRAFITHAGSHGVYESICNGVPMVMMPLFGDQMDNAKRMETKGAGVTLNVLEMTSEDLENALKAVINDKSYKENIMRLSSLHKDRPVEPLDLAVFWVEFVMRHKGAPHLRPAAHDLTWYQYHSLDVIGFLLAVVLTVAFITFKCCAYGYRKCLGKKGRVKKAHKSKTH

[2] = target: UDP-glucuronosyltransferase 2B15 (Homo sapiens, UniProt P54855); assay: Drug glucuronidation reaction catalyzed by human recombinant UGT2B15
UDP-glucuronosyltransferase 2B15, sequence (P54855 whole entry): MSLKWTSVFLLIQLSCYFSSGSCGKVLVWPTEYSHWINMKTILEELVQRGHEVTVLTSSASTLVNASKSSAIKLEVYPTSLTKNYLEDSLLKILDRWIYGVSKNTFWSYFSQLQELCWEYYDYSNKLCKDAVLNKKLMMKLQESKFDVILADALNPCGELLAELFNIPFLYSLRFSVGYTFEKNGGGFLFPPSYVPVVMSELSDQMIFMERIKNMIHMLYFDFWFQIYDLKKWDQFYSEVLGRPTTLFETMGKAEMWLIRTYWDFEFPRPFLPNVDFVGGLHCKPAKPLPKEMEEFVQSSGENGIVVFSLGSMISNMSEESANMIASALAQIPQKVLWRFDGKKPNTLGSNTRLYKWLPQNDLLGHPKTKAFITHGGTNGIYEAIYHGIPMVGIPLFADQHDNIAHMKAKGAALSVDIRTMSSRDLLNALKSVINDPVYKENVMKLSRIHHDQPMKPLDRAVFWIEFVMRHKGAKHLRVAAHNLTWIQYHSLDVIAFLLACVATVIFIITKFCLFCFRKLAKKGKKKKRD

[3] = target: T2, UDP-glucuronosyltransferase 1A4 (Homo sapiens, UniProt P22310); assay: Drug glucuronidation reaction catalyzed by human recombinant UGT1A4
T2 sequence (P22310 whole entry): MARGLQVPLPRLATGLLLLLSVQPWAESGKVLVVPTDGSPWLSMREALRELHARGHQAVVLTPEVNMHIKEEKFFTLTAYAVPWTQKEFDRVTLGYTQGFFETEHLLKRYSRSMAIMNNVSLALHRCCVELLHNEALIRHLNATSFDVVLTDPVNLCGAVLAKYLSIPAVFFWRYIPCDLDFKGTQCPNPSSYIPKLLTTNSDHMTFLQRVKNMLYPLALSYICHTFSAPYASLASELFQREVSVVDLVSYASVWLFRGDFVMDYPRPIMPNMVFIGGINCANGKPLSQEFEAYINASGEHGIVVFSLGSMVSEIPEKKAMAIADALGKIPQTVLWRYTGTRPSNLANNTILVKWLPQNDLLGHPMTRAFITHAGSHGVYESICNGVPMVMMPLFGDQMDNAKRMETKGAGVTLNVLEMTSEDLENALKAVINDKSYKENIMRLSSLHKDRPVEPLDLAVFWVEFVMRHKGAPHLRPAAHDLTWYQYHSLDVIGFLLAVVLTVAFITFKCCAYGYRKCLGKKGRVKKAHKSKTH

[4] = target: T3, UDP-glucuronosyltransferase 1A1 (Homo sapiens, UniProt P22309); assay: Drug glucuronidation reaction catalyzed by human recombinant UGT1A1
T3 sequence (P22309 whole entry): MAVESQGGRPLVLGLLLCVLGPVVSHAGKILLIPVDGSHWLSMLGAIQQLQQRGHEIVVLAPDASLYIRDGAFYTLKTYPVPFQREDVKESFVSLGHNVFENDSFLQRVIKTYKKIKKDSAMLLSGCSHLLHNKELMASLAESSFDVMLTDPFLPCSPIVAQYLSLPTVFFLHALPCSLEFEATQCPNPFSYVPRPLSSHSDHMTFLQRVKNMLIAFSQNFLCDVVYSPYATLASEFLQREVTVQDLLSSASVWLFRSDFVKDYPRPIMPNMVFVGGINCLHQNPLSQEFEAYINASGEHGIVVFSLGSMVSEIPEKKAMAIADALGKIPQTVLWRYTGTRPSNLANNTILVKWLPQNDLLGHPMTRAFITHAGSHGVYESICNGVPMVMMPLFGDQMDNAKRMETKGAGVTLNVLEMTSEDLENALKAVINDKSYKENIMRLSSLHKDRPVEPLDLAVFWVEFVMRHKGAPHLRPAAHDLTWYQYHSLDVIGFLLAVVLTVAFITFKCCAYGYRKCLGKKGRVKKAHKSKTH

[5] = Inhibition of AZT (0.02 mM) glucuronidation by human UGT enzymes from liver microsomes; parameters: species or system Microsome

Structure (SMILES) | Vmax [1] [pmol/min/mg protein] | Vmax [2] [pmol/min/mg protein] | Vmax [3] [pmol/min/mg protein] | Vmax [4] [pmol/min/mg protein] | IC50 [5] [µM]
CC(O)/C(=C(\c1ccccc1)c1ccc(OCCN(C)C)cc1)c1ccccc1 (stereo in doubt; cis) | 57 | 720 | 315 | 291 | 
O=C1C(O)=C([C@H]2CC[C@H](c3ccc(Cl)cc3)CC2)C(=O)c2ccccc21 [ATOVAQUONE] |  |  |  |  | > 273
OC(Cn1cncn1)(Cn1cncn1)c1ccc(F)cc1F [FLUCONAZOLE] |  |  |  |  | 163
